Reference: PubChem BioAssay (NCI)
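Compound exposure: 48 hours, 5 concentrations, 96-well plates. GI50 marks 50% less growth. Definition used: TGI = concentration required for complete inhibition of growth.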

What was measured:
Experiment in all cases: growth of human tumour cells (NCI), 48 h
786-0 renal = tested on: 786-0 renal
A498 renal = tested on: A498 renal
A549 NSCLC = tested on: A549 NSCLC
ACHN renal = tested on: ACHN renal
BT-549 breast = tested on: BT-549 breast
CAKI-1 renal = tested on: CAKI-1 renal
CCRF-CEM leukemia = tested on: CCRF-CEM leukemia
COLO 205 colon = tested on: COLO 205 colon
DU-145 prostate = tested on: DU-145 prostate
EKVX NSCLC = tested on: EKVX NSCLC
HCC-2998 colon = tested on: HCC-2998 colon
HCT-116 colon = tested on: HCT-116 colon
HCT-15 colon = tested on: HCT-15 colon
HL-60(TB) leukemia = tested on: HL-60(TB) leukemia
HOP-62 NSCLC = tested on: HOP-62 NSCLC
HOP-92 NSCLC = tested on: HOP-92 NSCLC
HS 578T breast = tested on: HS 578T breast
HT29 colon = tested on: HT29 colon
IGROV1 ovarian = tested on: IGROV1 ovarian
K-562 leukemia = tested on: K-562 leukemia
KM12 colon = tested on: KM12 colon
LOX IMVI melanoma = tested on: LOX IMVI melanoma
M14 melanoma = tested on: M14 melanoma
MALME-3M melanoma = tested on: MALME-3M melanoma
MCF7 breast = tested on: MCF7 breast
MDA-MB-231 breast = tested on: MDA-MB-231 breast
MDA-MB-435 = tested on: MDA-MB-435
MOLT-4 leukemia = tested on: MOLT-4 leukemia
NCI-H226 lung = tested on: NCI-H226 lung
NCI-H23 lung = tested on: NCI-H23 lung
NCI-H460 lung = tested on: NCI-H460 lung
NCI-H522 lung = tested on: NCI-H522 lung
NCI/ADR-RES ovarian = tested on: NCI/ADR-RES ovarian
OVCAR-3 ovarian = tested on: OVCAR-3 ovarian
OVCAR-4 ovarian = tested on: OVCAR-4 ovarian
OVCAR-5 ovarian = tested on: OVCAR-5 ovarian
OVCAR-8 ovarian = tested on: OVCAR-8 ovarian
PC-3 prostate = tested on: PC-3 prostate
RPMI-8226 leukemia = tested on: RPMI-8226 leukemia
RXF 393 renal = tested on: RXF 393 renal
SF-268 CNS = tested on: SF-268 CNS
SF-295 CNS = tested on: SF-295 CNS
SF-539 CNS = tested on: SF-539 CNS
SK-MEL-2 melanoma = tested on: SK-MEL-2 melanoma
SK-MEL-28 melanoma = tested on: SK-MEL-28 melanoma
SK-MEL-5 melanoma = tested on: SK-MEL-5 melanoma
SK-OV-3 ovarian = tested on: SK-OV-3 ovarian
SN12C renal = tested on: SN12C renal
SNB-19 CNS = tested on: SNB-19 CNS
SNB-75 CNS = tested on: SNB-75 CNS
SR leukemia = tested on: SR leukemia
SW-620 colon = tested on: SW-620 colon
T-47D breast = tested on: T-47D breast
TK-10 renal = tested on: TK-10 renal
U251 CNS = tested on: U251 CNS
UACC-257 melanoma = tested on: UACC-257 melanoma
UACC-62 melanoma = tested on: UACC-62 melanoma
UO-31 renal = tested on: UO-31 renal

NC(N)=N/N=C/c1cccc(Cl)c1Cl
GI50 (786-0 renal): 11.1 µM
TGI (786-0 renal): 24.7 µM
GI50 (A498 renal): 11.1 µM
TGI (A498 renal): 25.6 µM
GI50 (A549 NSCLC): 7.51 µM
TGI (A549 NSCLC): 21.9 µM
GI50 (ACHN renal): 12.4 µM
TGI (ACHN renal): 25.9 µM
GI50 (BT-549 breast): 13.2 µM
TGI (BT-549 breast): 28.7 µM
GI50 (CAKI-1 renal): 6.62 µM
TGI (CAKI-1 renal): 21.8 µM
GI50 (CCRF-CEM leukemia): 7.26 µM
TGI (CCRF-CEM leukemia): 29.2 µM
GI50 (COLO 205 colon): 1690 nM
TGI (COLO 205 colon): 3.13 µM
GI50 (DU-145 prostate): 9.18 µM
TGI (DU-145 prostate): 21.1 µM
GI50 (EKVX NSCLC): 9.02 µM
TGI (EKVX NSCLC): 24.2 µM
GI50 (HCC-2998 colon): 1730 nM
TGI (HCC-2998 colon): 3.47 µM
GI50 (HCT-116 colon): 3.24 µM
TGI (HCT-116 colon): 10.8 µM
GI50 (HCT-15 colon): 3.25 µM
TGI (HCT-15 colon): 11.7 µM
GI50 (HL-60(TB) leukemia): 3.46 µM
TGI (HL-60(TB) leukemia): 8.16 µM
GI50 (HOP-62 NSCLC): 11.7 µM
TGI (HOP-62 NSCLC): 24.1 µM
GI50 (HOP-92 NSCLC): 1190 nM
TGI (HOP-92 NSCLC): 5.88 µM
GI50 (HS 578T breast): 12.2 µM
TGI (HS 578T breast): 34.9 µM
GI50 (HT29 colon): 2310 nM
TGI (HT29 colon): 5.98 µM
GI50 (IGROV1 ovarian): 11 µM
TGI (IGROV1 ovarian): 25.6 µM
GI50 (K-562 leukemia): 3.92 µM
TGI (K-562 leukemia): 13.9 µM
GI50 (KM12 colon): 2170 nM
TGI (KM12 colon): 4.91 µM
GI50 (LOX IMVI melanoma): 2490 nM
TGI (LOX IMVI melanoma): 8.4 µM
GI50 (M14 melanoma): 1980 nM
TGI (M14 melanoma): 4.04 µM
GI50 (MALME-3M melanoma): 4.62 µM
TGI (MALME-3M melanoma): 18.1 µM
GI50 (MCF7 breast): 2090 nM
TGI (MCF7 breast): 5.03 µM
GI50 (MDA-MB-231 breast): 3.63 µM
TGI (MDA-MB-231 breast): 14.7 µM
GI50 (MDA-MB-435): 1770 nM
TGI (MDA-MB-435): 3.89 µM
GI50 (MOLT-4 leukemia): 6.13 µM
TGI (MOLT-4 leukemia): 23.9 µM
GI50 (NCI-H226 lung): 13.6 µM
TGI (NCI-H226 lung): 29.2 µM
GI50 (NCI-H23 lung): 11.2 µM
TGI (NCI-H23 lung): 26.4 µM
GI50 (NCI-H460 lung): 3.76 µM
TGI (NCI-H460 lung): 14.7 µM
GI50 (NCI-H522 lung): 3.16 µM
TGI (NCI-H522 lung): 13.6 µM
GI50 (NCI/ADR-RES ovarian): 8.38 µM
TGI (NCI/ADR-RES ovarian): 24 µM
GI50 (OVCAR-3 ovarian): 4.55 µM
TGI (OVCAR-3 ovarian): 14.9 µM
GI50 (OVCAR-4 ovarian): 13 µM
TGI (OVCAR-4 ovarian): 26.8 µM
GI50 (OVCAR-5 ovarian): 12.4 µM
TGI (OVCAR-5 ovarian): 26.3 µM
GI50 (OVCAR-8 ovarian): 8.93 µM
TGI (OVCAR-8 ovarian): 25.8 µM
GI50 (PC-3 prostate): 10.8 µM
TGI (PC-3 prostate): 23.6 µM
GI50 (RPMI-8226 leukemia): 3.39 µM
TGI (RPMI-8226 leukemia): 15.1 µM
GI50 (RXF 393 renal): 4.75 µM
TGI (RXF 393 renal): 18.3 µM
GI50 (SF-268 CNS): 11.8 µM
TGI (SF-268 CNS): 25.5 µM
GI50 (SF-295 CNS): 2830 nM
TGI (SF-295 CNS): 10.3 µM
GI50 (SF-539 CNS): 15.6 µM
TGI (SF-539 CNS): 31.2 µM
GI50 (SK-MEL-2 melanoma): 2220 nM
TGI (SK-MEL-2 melanoma): 4.16 µM
GI50 (SK-MEL-28 melanoma): 4.24 µM
TGI (SK-MEL-28 melanoma): 14.7 µM
GI50 (SK-MEL-5 melanoma): 2330 nM
TGI (SK-MEL-5 melanoma): 6.64 µM
GI50 (SK-OV-3 ovarian): 7.06 µM
TGI (SK-OV-3 ovarian): 20 µM
GI50 (SN12C renal): 3.92 µM
TGI (SN12C renal): 16.3 µM
GI50 (SNB-19 CNS): 3.32 µM
TGI (SNB-19 CNS): 11.8 µM
GI50 (SNB-75 CNS): 11.6 µM
TGI (SNB-75 CNS): 26.9 µM
GI50 (SR leukemia): 2720 nM
TGI (SR leukemia): 11.2 µM
GI50 (SW-620 colon): 2250 nM
TGI (SW-620 colon): 5.89 µM
GI50 (T-47D breast): 1540 nM
TGI (T-47D breast): 3.64 µM
GI50 (TK-10 renal): 11.9 µM
TGI (TK-10 renal): 24.4 µM
GI50 (U251 CNS): 3.4 µM
TGI (U251 CNS): 13.2 µM
GI50 (UACC-257 melanoma): 6.26 µM
TGI (UACC-257 melanoma): 20.6 µM
GI50 (UACC-62 melanoma): 1850 nM
TGI (UACC-62 melanoma): 4.96 µM
GI50 (UO-31 renal): 10.1 µM
TGI (UO-31 renal): 22.7 µM
